Assay results from ChEMBL document CHEMBL5390307, “Sila-CBD Derivatives as Inhibitors of Heme-Induced NLRP3 Inflammasome: Application in Hemolytic Diseases” (ACS Med Chem Lett, 2023).
The source made the active and inactive calls. The rule behind the calls is not given here.

Columns and labels:
[1] = biological target: NACHT, LRR and PYD domains-containing protein 3 (Homo sapiens) (UniProt Q96P20); assay: Inhibition of NLRP3 mediated in HEME-induced inflammasome in human PMA differentiated THP-1 cells assessed as reduction in IL-1beta level in presence of LPS at 1 uM pretreated for 1 hr followed by hemin addition measured after 1 hrs by ELISA method; assay type: cell-based; settings: time 2.0 hrs
[2] = Metabolic stability in mouse liver microsomes assessed as drug degradation in the presence of NADPH measured after 5 mins by LC-MS method; assay type: ADME, Microsome
[3] = biological target: NACHT, LRR and PYD domains-containing protein 3 (Homo sapiens) (UniProt Q96P20); assay: Inhibition of NLRP3 mediated in HEME-induced inflammasome in human PMA differentiated THP-1 cells assessed as reduction in IL-1beta level in presence of LPS at 10 uM pretreated for 1 hr followed by hemin addition measured after 1 hrs by ELISA method relative to control; assay type: cell-based; settings: time 2.0 hrs
[4] = biological target: NACHT, LRR and PYD domains-containing protein 3 (Mus musculus) (UniProt Q8R4B8); assay: Inhibition of NLRP3 inflammasome in mouse J774.A1 cells assessed as reduction in IL-6 in presence of LPS at 0.1 to 1 uM pretreated for 1 hr followed by LPS stimulation measured after 24 hrs by ELISA method; assay type: cell-based; settings: dose 0.1-1 µM, time 25.0 hrs
[5] = biological target: NACHT, LRR and PYD domains-containing protein 3 (Homo sapiens) (UniProt Q96P20); assay: Inhibition of NLRP3 mediated in HEME-induced inflammasome in human PMA differentiated THP-1 cells assessed as reduction in IL-1beta level in presence of LPS at 1 uM pretreated for 1 hr followed by hemin addition measured after 1 hrs by ELISA method relative to control; assay type: cell-based; settings: time 2.0 hrs
[6] = biological target: NACHT, LRR and PYD domains-containing protein 3 (Mus musculus) (UniProt Q8R4B8); assay: Inhibition of NLRP3 inflammasome in mouse J774.A1 cells assessed as reduction in TNF-alpha in presence of LPS at 10 uM pretreated for 1 hr followed by LPS stimulation measured after 24 hrs by ELISA method; assay type: cell-based; settings: time 25.0 hrs
J774.A1 = assay: Cytotoxicity against mouse J774.A1 cells assessed as reduction in cell viability at 10 uM incubated for 24 hrs by MTT assay; assay type: toxicity, cell-based; settings: j774.a1, 24 h
Mus musculus [7] = assay: Antiinflammatory activity against LPS/HEME-induced Balb/C mouse model assessed as reduction of IL-1 beta secretion at 30 mg/kg, ip administered for 30 mins followed by LPS for 4 hrs incubation and later stimulated with HEME for 1 hrs by ELISA; assay type: functional, organism-based; settings: time 330.0 min
[8] = biological target: NACHT, LRR and PYD domains-containing protein 3 (Homo sapiens) (UniProt Q96P20); assay: Inhibition of NLRP3 mediated in HEME-induced inflammasome in human PMA differentiated THP-1 cells assessed as reduction in IL-1beta level in presence of LPS at 0.1 uM pretreated for 1 hr followed by hemin addition measured after 1 hrs by ELISA method relative to control; assay type: cell-based; settings: time 2.0 hrs
Mus musculus [9] = assay: Antiinflammatory activity against LPS/HEME-induced Balb/C mouse model assessed as reduction of IL-1 beta secretion at 10 mg/kg, ip administered for 30 mins followed by LPS for 4 hrs incubation and later stimulated with HEME for 1 hrs by ELISA; assay type: functional, organism-based; settings: time 330.0 min
[10] = Metabolic stability in human liver microsomes assessed as drug degradation measured after 5 mins by LC-MS method relative to control; assay type: ADME, Microsome; settings: read-out: Drug degradation
[11] = biological target: NACHT, LRR and PYD domains-containing protein 3 (Mus musculus) (UniProt Q8R4B8); assay: Inhibition of NLRP3 inflammasome in mouse J774.A1 cells assessed as reduction in TNF-alpha in presence of LPS at 0.1 to 1 uM pretreated for 1 hr followed by LPS stimulation measured after 24 hrs by ELISA method; assay type: cell-based; settings: dose 0.1-1 µM, time 25.0 hrs
[12] = biological target: NACHT, LRR and PYD domains-containing protein 3 (Homo sapiens) (UniProt Q96P20); assay: Inhibition of NLRP3 mediated in HEME-induced inflammasome in human PMA differentiated THP-1 cells assessed as reduction in IL-1beta level in presence of LPS at 10 uM pretreated for 1 hr followed by hemin addition measured after 1 hrs by ELISA method; assay type: cell-based; settings: time 2.0 hrs
[13] = biological target: NACHT, LRR and PYD domains-containing protein 3 (Mus musculus) (UniProt Q8R4B8); assay: Inhibition of NLRP3 inflammasome in mouse J774.A1 cells assessed as reduction in IL-6 in presence of LPS at 10 uM pretreated for 1 hr followed by LPS stimulation measured after 24 hrs by ELISA method; assay type: cell-based; settings: time 25.0 hrs
[14] = Metabolic stability in mouse liver microsomes in presence of NADPH measured after 5 mins by single ion monitoring mode based LC-MS method; assay type: ADME, Microsome
[15] = biological target: NACHT, LRR and PYD domains-containing protein 3 (Homo sapiens) (UniProt Q96P20); assay: Inhibition of NLRP3 mediated in HEME-induced inflammasome in human PMA differentiated THP-1 cells assessed as reduction in IL-1beta level in presence of LPS at 0.1 to 10 uM pretreated for 1 hr followed by hemin addition measured after 1 hrs by ELISA method; assay type: cell-based; settings: dose 0.1-10 µM, time 2.0 hrs
[16] = Metabolic stability in mouse liver microsomes assessed as drug degradation measured after 5 mins in absence of NADPH by single ion monitoring mode based LC-MS method relative to control; assay type: ADME, Microsome; settings: read-out: Drug degradation
Mus musculus [17] = assay: Antiinflammatory activity against LPS/HEME-induced Balb/C mouse model assessed as reduction of IL-1 beta secretion at 1 mg/kg, ip administered for 30 mins followed by LPS for 4 hrs incubation and later stimulated with HEME for 1 hrs by ELISA; assay type: functional, organism-based; settings: time 330.0 min

Chain of NACHT, LRR and PYD domains-containing protein 3 (Homo sapiens) (Q96P20 whole entry, the tested form may be a part): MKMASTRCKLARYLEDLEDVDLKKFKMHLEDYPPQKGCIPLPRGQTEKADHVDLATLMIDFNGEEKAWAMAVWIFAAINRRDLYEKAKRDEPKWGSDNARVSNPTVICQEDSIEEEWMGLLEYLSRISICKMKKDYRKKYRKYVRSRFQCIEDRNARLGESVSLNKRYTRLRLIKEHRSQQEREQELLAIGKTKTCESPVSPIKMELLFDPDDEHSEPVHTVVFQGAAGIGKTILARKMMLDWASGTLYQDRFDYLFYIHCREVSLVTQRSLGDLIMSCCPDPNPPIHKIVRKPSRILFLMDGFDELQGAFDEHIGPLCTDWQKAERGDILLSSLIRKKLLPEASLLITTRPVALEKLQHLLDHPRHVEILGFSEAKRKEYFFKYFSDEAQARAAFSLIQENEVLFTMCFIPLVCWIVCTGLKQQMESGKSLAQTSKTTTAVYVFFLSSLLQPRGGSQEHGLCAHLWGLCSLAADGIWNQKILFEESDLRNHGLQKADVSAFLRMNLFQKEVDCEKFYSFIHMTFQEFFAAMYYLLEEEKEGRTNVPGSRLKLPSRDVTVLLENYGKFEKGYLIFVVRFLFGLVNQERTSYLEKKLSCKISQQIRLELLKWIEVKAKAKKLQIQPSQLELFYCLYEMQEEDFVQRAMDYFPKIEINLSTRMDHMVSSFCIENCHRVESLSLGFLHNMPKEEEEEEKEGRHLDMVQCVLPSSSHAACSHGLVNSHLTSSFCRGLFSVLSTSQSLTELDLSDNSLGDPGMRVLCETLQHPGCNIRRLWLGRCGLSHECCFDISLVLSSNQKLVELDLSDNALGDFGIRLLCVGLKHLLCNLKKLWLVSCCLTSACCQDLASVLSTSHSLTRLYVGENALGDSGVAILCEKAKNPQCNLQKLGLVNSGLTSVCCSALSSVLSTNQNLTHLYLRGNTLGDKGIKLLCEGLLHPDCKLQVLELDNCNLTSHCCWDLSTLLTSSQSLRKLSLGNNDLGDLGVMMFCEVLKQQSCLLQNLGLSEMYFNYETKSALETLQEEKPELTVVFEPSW
Chain of NACHT, LRR and PYD domains-containing protein 3 (Mus musculus) (Q8R4B8 whole entry, the tested form may be a part): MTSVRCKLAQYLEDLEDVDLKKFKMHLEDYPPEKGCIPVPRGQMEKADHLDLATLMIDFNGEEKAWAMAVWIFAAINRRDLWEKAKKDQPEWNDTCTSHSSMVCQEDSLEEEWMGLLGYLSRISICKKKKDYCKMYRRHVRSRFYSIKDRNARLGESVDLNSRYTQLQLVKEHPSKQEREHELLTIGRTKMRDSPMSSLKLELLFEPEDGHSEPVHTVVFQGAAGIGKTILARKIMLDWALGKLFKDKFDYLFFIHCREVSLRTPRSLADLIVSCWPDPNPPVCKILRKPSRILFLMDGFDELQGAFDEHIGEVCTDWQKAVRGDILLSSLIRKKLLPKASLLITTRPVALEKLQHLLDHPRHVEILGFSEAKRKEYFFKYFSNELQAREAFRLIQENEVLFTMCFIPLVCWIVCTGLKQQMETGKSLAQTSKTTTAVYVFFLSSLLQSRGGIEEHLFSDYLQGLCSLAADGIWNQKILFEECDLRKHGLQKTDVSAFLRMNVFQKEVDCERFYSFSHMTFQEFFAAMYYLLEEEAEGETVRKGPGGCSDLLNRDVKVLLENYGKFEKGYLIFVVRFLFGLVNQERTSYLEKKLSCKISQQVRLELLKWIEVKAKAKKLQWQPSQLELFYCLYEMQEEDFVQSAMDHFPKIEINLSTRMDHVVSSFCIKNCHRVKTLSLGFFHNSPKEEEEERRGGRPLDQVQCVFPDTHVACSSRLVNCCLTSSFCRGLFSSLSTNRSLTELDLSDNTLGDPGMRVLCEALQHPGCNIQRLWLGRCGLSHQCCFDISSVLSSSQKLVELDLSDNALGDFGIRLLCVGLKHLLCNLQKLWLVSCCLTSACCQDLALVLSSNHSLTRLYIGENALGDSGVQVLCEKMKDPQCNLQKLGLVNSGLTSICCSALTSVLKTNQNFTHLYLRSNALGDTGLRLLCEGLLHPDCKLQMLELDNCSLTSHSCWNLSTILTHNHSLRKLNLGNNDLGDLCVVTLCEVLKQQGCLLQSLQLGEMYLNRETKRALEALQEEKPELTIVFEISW

Row | Compound | inhibition [1] | inhibition [4] | Activity (J774.A1) | inhibition [11] | further results
1 | CCCCCc1cc(O)c(C/C=C(\C)CCC=C(C)C)c(O)c1 | Active |  |  |  | 
2 | C=C(C)[C@@H]1CCC(C)=C[C@H]1C1=C(O)C(=O)C([Si](C)(C)C)=CC1=O |  | Active | Non-Toxic | Active | Drug degradation [2]: Stable; inhibition [3]: > 80%; inhibition [5]: > 50%; inhibition [6]: Active; Activity (Mus musculus [7]): Active; inhibition [8]: > 20%; Activity (Mus musculus [9]): Active; metabolised at 5 min [10]: 10%
3 | CCCCCC[Si](C)(C)C1=CC(=O)C(C/C=C(\C)CCC=C(C)C)=C(O)C1=O | Active | inactive | Non-Toxic | inactive | inhibition [12]: Active; inhibition [13]: Active
4 | C=C(C)[C@@H]1CCC(C)=C[C@H]1C1=C(O)C(=O)C(CCCCC)=CC1=O |  |  |  |  | Stability [14]: Stable; inhibition [15]: inactive; metabolised at 5 min [16]: < 20%
5 | CCCCCC[Si](C)(C)c1cc(O)c(C/C=C(\C)CCC=C(C)C)c(O)c1 | Active |  | Non-Toxic |  | inhibition [3]: 60%
6 | CC(C)=CCC/C(C)=C/Cc1c(O)cc([Si](C)(C)C)cc1O |  |  | Non-Toxic |  | 
7 | C=C(C)[C@@H]1CCC(C)=C[C@H]1c1c(O)cc([Si](C)(C)CCCC)cc1O |  |  | Non-Toxic |  | 
8 | CCCC[Si](C)(C)C1=CC(=O)C(C/C=C(\C)CCC=C(C)C)=C(O)C1=O | Active | inactive | Non-Toxic | inactive | inhibition [12]: Active; inhibition [13]: Active
9 | CC(C)=CCC/C(C)=C/CC1=C(O)C(=O)C([Si](C)(C)C)=CC1=O | Active | inactive | Non-Toxic | inactive | inhibition [12]: Active; inhibition [6]: Active
10 | C=C(C)[C@@H]1CCC(C)=C[C@H]1c1c(O)cc([Si](C)(C)CCCCCC)cc1O |  |  | Non-Toxic |  | 
11 | CCCCCC1=CC(=O)C(C/C=C(\C)CCC=C(C)C)=C(O)C1=O |  |  |  |  | inhibition [15]: inactive
12 | COc1cc2c(c(OC)c1OC)-c1ccc(OC)c(=O)cc1[C@@H](NC(C)=O)CC2 |  |  |  |  | Activity (Mus musculus [17]): Active
13 | CCCC[Si](C)(C)c1cc(O)c(C/C=C(\C)CCC=C(C)C)c(O)c1 |  |  | Non-Toxic |  | 
